Laboratory results taken from US20260013505A1, “Herbicidal Compositions Comprising Diclosulam” (BASF SE, priority 2024, published 2026).

How the values were obtained:
Type in all cases: in vivo
[1] = test system: Ipomoea triloba; assay: Example 1 post-emergence field trial, IPOTR; details: 14 DAT, growth stage 35
Method: (§1) In the examples below, using the method of S. R. Colby (1967) “Calculating synergistic and antagonistic responses of herbicide combinations”, Weeds 15, p. 22ff., the value E, which is expected if the activity of the individual active compounds is only additive, was calculated:
(§2) [formula] • where • X=percent activity using active herbicide A at an application rate a; • Y=percent activity using active herbicide B (e.g. diclosulam) at an application rate b; • E=expected activity (in %) by A+B at application rates a+b.
(§3) If the value found experimentally is higher than the value E calculated according to Colby, a synergistic effect is present.
(§4) On field test sites, natural weed infestation or seeded weeds were treated post-emergence of the weeds.
(§5) In the field trials, the weeds were treated as indicated below.
(§6) In the following experiments, the herbicidal activity for the individual herbicidal compositions (solo and mixture applications) was assessed at the indicated days after treatment (DAT). The assessments for the damage on undesired weeds caused by the composition was carried out using a scale from 0 to 100%, compared to the untreated control plants. Here, 0 means no damage and 100 means complete destruction of the plants. […]

[2] = test system: Amaranthus viridis; assay: Example 2 post-emergence field trial, AMAVI; details: 21 DAT, growth stage 16-18
Method: as §1, §2, §3, §4, §5, §6

[3] = test system: Cenchrus echinatus; assay: Example 1 post-emergence field trial, CCHEC; details: B solo 30 g ai/ha, 14 DAT, growth stage 18-31
Method: as §1, §2, §3, §4, §5, §6

[4] = test system: Digitaria horizontalis; assay: Example 1 post-emergence field trial, DIGHO; details: B solo 30 g ai/ha, 14 DAT, growth stage 18-31
Method: as §1, §2, §3, §4, §5, §6

[5] = test system: Eleusine indica; assay: Example 2 post-emergence field trial, ELEIN; details: B solo 30 g ai/ha, 21 DAT, growth stage 21-25
Method: as §1, §2, §3, §4, §5, §6

[6] = test system: Euphorbia heterophylla; assay: Example 1 post-emergence field trial, EPHHL; details: B solo 30 g ai/ha, 14 DAT, growth stage 35
Method: as §1, §2, §3, §4, §5, §6

[7] = test system: Eleusine indica; assay: Example 1 post-emergence field trial, ELEIN; details: B solo 30 g ai/ha, 14 DAT, growth stage 18-31
Method: as §1, §2, §3, §4, §5, §6

[8] = test system: Portulaca oleracea; assay: Example 2 post-emergence field trial, POROL; details: B solo 30 g ai/ha, 21 DAT, growth stage 14-16
Method: as §1, §2, §3, §4, §5, §6

[9] = test system: Brachiaria plantaginea; assay: Example 1 post-emergence field trial, BRAPL; details: B solo 30 g ai/ha, 14 DAT, growth stage 21-25
Method: as §1, §2, §3, §4, §5, §6

[10] = test system: Sorghum vulgare; assay: Example 2 post-emergence field trial, SORVU; details: B solo 30 g ai/ha, 14 DAT, growth stage 14-15
Method: as §1, §2, §3, §4, §5, §6

[11] = test system: Amaranthus hybridus; assay: Example 1 post-emergence field trial, AMACH; details: B solo 30 g ai/ha, 14 DAT, growth stage 35
Method: as §1, §2, §3, §4, §5, §6

Compound	% herbicidal activity ([1]; A-1 solo 25 g ai/ha) [%]	% herbicidal activity ([2]; A-1 solo 25 g ai/ha) [%]	% herbicidal activity [3] [%]	% herbicidal activity [4] [%]	% herbicidal activity [5] [%]	% herbicidal activity [6] [%]	% herbicidal activity [7] [%]	% herbicidal activity [8] [%]	% herbicidal activity [9] [%]	% herbicidal activity ([1]; B solo 30 g ai/ha) [%]	% herbicidal activity [10] [%]	% herbicidal activity ([2]; B solo 30 g ai/ha) [%]	% herbicidal activity [11] [%]
CCOC(=O)COc1ccccc1Oc1nc(-n2c(=O)cc(C(F)(F)F)n(C)c2=O)c(F)cc1Cl [A-1, ethyl 2-[2-[[3-chloro-5-fluoro-6-[3-methyl-2,6-dioxo-4-(trifluoromethyl)pyrimidin-1-yl]-2-pyridyl]oxy]phenoxy]acetate]	61	69											
CCOc1nc(F)cc2nc(S(=O)(=O)Nc3c(Cl)cccc3Cl)nn12 [B, diclosulam]			20	0	0	16	0	58	3	17	32	65	22
